Results reported in patent publication EP4417602A1, “SUBSTITUTED PYRAZOLE CARBOXAMIDES, SALTS THEREOF AND THEIR USE AS HERBICIDALLY ACTIVE SUBSTANCES” (Bayer AG, priority 2023, dated 2024).

Experiments:
DIGSA [1] = experiment: A. Herbicidal pre-emergence action on harmful plants (Tables A); assay type: in vivo, Digitaria sanguinalis
Procedure, shortened: (§1)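 Values are visual percent damage relative to untreated controls, scored ca. 3 weeks after the compound was sprayed on the covering soil of sown pots (sandy loam) at rates up to 1280 g/ha, formulated as WP or EC with 0.5% additive.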

KCHSC = experiment: B. Herbicidal post-emergence action on harmful plants (Tables B); assay type: in vivo, Kochia scoparia; conditions: application rate 1280 g/ha; Table B10a
Method: (§2) Seeds of mono- and dicotyledonous weed plants were placed in plastic pots in sandy loam soil (doubly sown with in each case one species of mono- or dicotyledonous weed plants per pot), covered with soil and cultivated in a greenhouse under controlled growth conditions. 2 to 3 weeks after sowing, the test plants were treated at the one-leaf stage. The compounds of the invention, formulated in the form of wettable powders (WP) or as emulsion concentrates (EC), were applied onto the green parts of the plants as aqueous suspension or emulsion with addition of 0.5% additive at a water application rate of 600 liters per hectare (converted). After the test plants had been kept in the greenhouse under optimum growth conditions for about 3 weeks, the activity of the preparations was rated visually in comparison to untreated controls. For example, 100% activity = the plants have died, 0% activity = like control plants. Tables B1 to B12, below, show the effects of selected compounds of the general formula (I) according to table 1 on various harmful plants and an application rate corresponding to 1280 g/ha or below obtained by the experimental procedure mentioned above. Table B1a: post-emergence activity at 1280g/ha against ABUTH in %

LOLRI [2] = experiment: A. Herbicidal pre-emergence action on harmful plants (Tables A); assay type: in vivo, Lolium rigidum; conditions: visual grading after ca. 3 weeks vs untreated controls, 100% = plants have died off, 0% = as control plants
Procedure, shortened: as §1

SETVI [3] = experiment: as above; assay type: in vivo, Setaria viridis; conditions: visual grading after ca. 3 weeks vs untreated controls, 100% = plants have died off, 0% = as control plants
Procedure, shortened: as §1

POAAN [4] = experiment: as above; assay type: in vivo, Poa annua
Procedure, shortened: as §1

ECHCG [5] = experiment: as above; assay type: in vivo, Echinochloa crus-galli; conditions: visual grading after ca. 3 weeks vs untreated controls, 100% = plants have died off, 0% = as control plants
Procedure, shortened: as §1

STEME [6] = experiment: as above; assay type: in vivo, Stellaria media; conditions: visual grading after ca. 3 weeks vs untreated controls, 100% = plants have died off, 0% = as control plants
Procedure, shortened: as §1

MATIN [7] = experiment: as above; assay type: in vivo, Matricaria inodora; conditions: visual grading after ca. 3 weeks vs untreated controls, 100% = plants have died off, 0% = as control plants
Procedure, shortened: as §1

DIGSA [8] = experiment: B. Herbicidal post-emergence action on harmful plants (Tables B); assay type: in vivo, Digitaria sanguinalis; conditions: application rate 1280 g/ha; Table B12a
Procedure, shortened: (§3)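 Greenhouse weeds grown in sandy loam were sprayed post-emergence at the one-leaf stage, 2-3 weeks after sowing. Compounds were applied as WP or EC in water with 0.5% additive at 600 L/ha, at 1280 g/ha or below. Visual damage was rated after about 3 weeks versus untreated plants (0-100%).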

LOLRI [9] = experiment: as above; assay type: in vivo, Lolium rigidum; conditions: application rate 1280 g/ha; Table B3
Method: as §2

SETVI [10] = experiment: as above; assay type: in vivo, Setaria viridis; conditions: application rate 1280 g/ha; Table B5
Procedure, shortened: as §3

ABUTH = experiment: as above; assay type: in vivo, Abutilon theophrasti; conditions: application rate 1280 g/ha; Table B1a
Procedure, shortened: as §3

POAAN [11] = experiment: as above; assay type: in vivo, Poa annua
Procedure, shortened: as §3

MATIN [12] = experiment: as above; assay type: in vivo, Matricaria inodora; conditions: application rate 1280 g/ha; Table B4a
Procedure, shortened: as §3

ECHCG [13] = experiment: as above; assay type: in vivo, Echinochloa crus-galli
Procedure, shortened: as §3

VERPE [14] = experiment: A. Herbicidal pre-emergence action on harmful plants (Tables A); assay type: in vivo, Veronica persica; conditions: application rate 1280 g/ha; Table A11
Text: Seeds of mono- and dicotyledonous weed plants were sown in plastic pots (double sowings with one species of mono- and one species of dicotyledonous weed plants per pot), in sandy loam, and covered with soil. The compounds according to the invention, formulated in the form of wettable powders (WP) or as emulsifiable concentrates (EC), were applied to the surface of the covering soil as aqueous suspension or emulsion, with the addition of 0.5% of an additive, at an application rate of 6001 of water per hectare (converted). Following treatment, the pots were placed in a greenhouse and kept under optimum growth conditions for the test plants. The visual grading of the damage to the test plants was carried out after ca. 3 weeks in comparison to untreated controls (herbicidal effect in percent (%): 100% effect = plants have died off, 0% effect = as control plants). Tables A1 to A12, below, show the effects of selected compounds of the general formula (I) according to table 1 on various harmful plants and an application rate corresponding to 1280 g/ha or below obtained by the experimental procedure mentioned above. Table A1: pre-emergence activity at 1280g/ha against ABUTH in %

ALOMY = experiment: as above; assay type: in vivo, Alopecurus myosuroides
Procedure, shortened: as §1

VERPE [15] = experiment: B. Herbicidal post-emergence action on harmful plants (Tables B); assay type: in vivo, Veronica persica
Procedure, shortened: as §3

AMARE [16] = experiment: as above; assay type: in vivo, Amaranthus retroflexus; conditions: application rate 1280 g/ha; Table B8
Method: as §2

STEME [17] = experiment: as above; assay type: in vivo, Stellaria media; conditions: application rate 1280 g/ha; Table B6
Procedure, shortened: as §3

AMARE [18] = experiment: A. Herbicidal pre-emergence action on harmful plants (Tables A); assay type: in vivo, Amaranthus retroflexus
Procedure, shortened: as §1

[19] = application rate 320 g/ha, Table A12b
[20] = application rate 1280 g/ha, Table A12a
[21] = application rate 80 g/ha, Table A7c
[22] = application rate 320 g/ha, Table A7b
[23] = application rate 1280 g/ha, visual grading after ca. 3 weeks vs untreated controls, 100% = plants have died off, 0% = as control plants

## COCc1c(C(=O)N2CCCC2Cc2ccccc2F)cnn1C (racemic) [Example I-171]
DIGSA [1]; [19]
  pre-emergence activity against DIGSA: 90%
DIGSA [1]; [20]
  pre-emergence activity against DIGSA: 100%
KCHSC
  post-emergence activity against KCHSC: 90%
LOLRI [2]; application rate 320 g/ha
  pre-emergence activity against LOLRI: 90%
LOLRI [2]; application rate 1280 g/ha
  pre-emergence activity against LOLRI: 100%
SETVI [3]; application rate 320 g/ha
  pre-emergence activity against SETVI: 90%
SETVI [3]; application rate 1280 g/ha
  pre-emergence activity against SETVI: 100%
POAAN [4]; [21]
  pre-emergence activity against POAAN: 90%
POAAN [4]; [22]
  pre-emergence activity against POAAN: 100%
POAAN [4]; [23]
  pre-emergence activity against POAAN: 100%
ECHCG [5]; application rate 320 g/ha
  pre-emergence activity against ECHCG: 90%
ECHCG [5]; application rate 1280 g/ha
  pre-emergence activity against ECHCG: 100%
STEME [6]; application rate 1280 g/ha
  pre-emergence activity against STEME: 90%
MATIN [7]; application rate 1280 g/ha
  pre-emergence activity against MATIN: 100%

## COCc1nn(C)cc1C(=O)N1CCCC1Cc1ccc(F)cc1F (single isomer, unassigned) [Example I-079]
DIGSA [8]
  post-emergence activity against DIGSA: 90%
DIGSA [1]; application rate 80 g/ha, Table A12c
  pre-emergence activity against DIGSA: 90%
DIGSA [1]; [19]
  pre-emergence activity against DIGSA: 90%
DIGSA [1]; [20]
  pre-emergence activity against DIGSA: 90%
LOLRI [9]
  post-emergence activity against LOLRI: 90%
SETVI [10]
  post-emergence activity against SETVI: 90%
LOLRI [2]; application rate 80 g/ha
  pre-emergence activity against LOLRI: 90%
LOLRI [2]; application rate 320 g/ha
  pre-emergence activity against LOLRI: 100%
LOLRI [2]; application rate 1280 g/ha
  pre-emergence activity against LOLRI: 100%
SETVI [3]; application rate 80 g/ha
  pre-emergence activity against SETVI: 90%
SETVI [3]; application rate 320 g/ha
  pre-emergence activity against SETVI: 90%
SETVI [3]; application rate 1280 g/ha
  pre-emergence activity against SETVI: 90%
ABUTH
  post-emergence activity against ABUTH: 90%
POAAN [11]; application rate 80 g/ha, Table B7c
  post-emergence activity against POAAN: 90%
POAAN [11]; application rate 320 g/ha, Table B7b
  post-emergence activity against POAAN: 90%
POAAN [11]; application rate 1280 g/ha, Table B7a
  post-emergence activity against POAAN: 90%
MATIN [12]
  post-emergence activity against MATIN: 90%
ECHCG [13]; application rate 320 g/ha, Table B2b
  post-emergence activity against ECHCG: 90%
ECHCG [13]; application rate 1280 g/ha, Table B2a
  post-emergence activity against ECHCG: 90%
POAAN [4]; [21]
  pre-emergence activity against POAAN: 100%
POAAN [4]; [22]
  pre-emergence activity against POAAN: 100%
POAAN [4]; [23]
  pre-emergence activity against POAAN: 100%
VERPE [14]
  pre-emergence activity against VERPE: 90%
ALOMY; application rate 320 g/ha, Table A9b
  pre-emergence activity against ALOMY: 90%
ALOMY; application rate 1280 g/ha, Table A9a
  pre-emergence activity against ALOMY: 90%
ECHCG [5]; application rate 80 g/ha
  pre-emergence activity against ECHCG: 90%
ECHCG [5]; application rate 320 g/ha
  pre-emergence activity against ECHCG: 90%
ECHCG [5]; application rate 1280 g/ha
  pre-emergence activity against ECHCG: 90%
VERPE [15]; application rate 320 g/ha, Table B11b
  post-emergence activity against VERPE: 90%
VERPE [15]; application rate 1280 g/ha, Table B11a
  post-emergence activity against VERPE: 90%
AMARE [16]
  post-emergence activity against AMARE: 90%
STEME [17]
  post-emergence activity against STEME: 90%
AMARE [18]; application rate 320 g/ha, Table A8b
  pre-emergence activity against AMARE: 90%
AMARE [18]; [23]
  pre-emergence activity against AMARE: 90%
STEME [6]; application rate 80 g/ha
  pre-emergence activity against STEME: 90%
STEME [6]; application rate 320 g/ha
  pre-emergence activity against STEME: 90%
STEME [6]; application rate 1280 g/ha
  pre-emergence activity against STEME: 90%
MATIN [7]; application rate 80 g/ha
  pre-emergence activity against MATIN: 90%
MATIN [7]; application rate 320 g/ha
  pre-emergence activity against MATIN: 90%
MATIN [7]; application rate 1280 g/ha
  pre-emergence activity against MATIN: 90%
